The text below walks through data of a melting point compilation (Tetko et al.; mined from patent text by program, amines drawn as free bases though some values may be those of a salt).

As to `CN1C(=O)C(C2OC(=O)c3ccccc32)N(C)C(=O)C1Cc1ccccc1` (configuration not stated), the melting point worked out at 225 °C. As for `O=c1nc(-c2cccc(CSc3ccncc3)n2)sc2ccccc12`, the figure is 182 °C; as for `CC(C)(C)c1noc(NS(=O)(=O)c2ccccc2)c1Br`, 108 to 109 °C; as for `N#Cc1c(N2CCN(C(=O)c3ccco3)CC2)c2cc(Cl)cnc2n(Cc2cccc(F)c2)c1=O`, 134 °C. In the case of `Cc1cn(S(=O)(=O)c2cccc(C(C)(C)C)c2)c2ccc(C(F)(F)F)cc12` it was 90 to 108 °C; in that of `CCOC(=O)C1=Cc2cc(OC(F)(F)F)ccc2NC1C(F)(F)F` (configuration not stated), 123 to 125 °C; in that of `O=S(=O)(Cl)c1cccc2[nH]nnc12`, 173 to 175 °C.

`CCCOCCN(CC)c1ccc(-c2ccc3c(c2)C=C(C(=O)O)CCN3C=O)cc1` gave a melting point of 169 to 171 °C. On to `NC(=O)NC1CCCCC1`, for which the melting point was in the range of 175 to 176 °C. `CCC[C@@](CCc1ccccc1)(CC(=O)OCOc1ccc(-c2ccccc2)cc1)OCOc1ccc(-c2ccccc2)cc1` yielded a melting point of 104 to 106 °C. `Cc1ccc2c(c1)CC(N1CCN(CCN3CCOC3=O)CC1)c1cc(C)ccc1O2` (configuration not stated) yielded a melting point of 145 to 147 °C. Regarding `COc1cccc(COc2cc3c(cc2OC)C(=O)N(Cc2cccc(OC)c2)CC3)c1`, the melting point was in the range of 85 to 86 °C.

Turning to `COc1ccc(C(=O)Nc2ccccc2)cc1Nc1cccc(C)c1`, the melting point fell in the range of 160 to 161 °C. On to `COc1ccc(Sc2c([N+](=O)[O-])ccc(Cl)c2C(=O)O)cc1`, for which the melting point is 154 to 157 °C.

Take `C#CCOc1cc(-n2c(OC)nc(C(F)(F)F)cc2=O)c(F)cc1Cl`: the melting point is 108 to 110 °C. As for `CCc1nc2c(N)nc3ccccc3c2n1CCCC(C)=O`, the figure is 206 to 208 °C; as for `NC(Cn1cncn1)(Cn1cncn1)c1ccc(Cl)cc1Cl`, 135 to 136 °C; as for `CS(=O)(=O)C(=C1CN(C(c2ccc(Cl)cc2)c2ccc(Cl)cc2)C1)c1cccc(C(=O)NN2CCCCC2)c1`, 175 °C. `Cc1cc(-c2cccc(Cl)c2)nn2cnnc12` registered a melting point of 173 to 176 °C. Consider `CN1CCC(C2c3ccccc3C=Cc3ccccc32)CC1`, for which the melting point was 127 °C. Compound `CC1CN(c2cc3c(cc2F)c(=O)c(C(=O)O)c2n3C(C)S2)CCN1C` (configuration not stated) yielded a melting point of 198 to 201 °C.

On to `O=c1c2c(CCc3cccc([N+](=O)[O-])c3)n[nH]c2c2cccnc2n1-c1ccccc1`, for which the melting point was in the range of 245 to 247 °C. `COc1ccc(Oc2c(-c3ccc(S(C)(=O)=O)cc3)cnn(-c3cccc(Cl)c3)c2=O)cc1` gave a melting point of 182 to 184 °C.

In the case of `O=C(Nc1ccccc1)Nc1ccc2ccc(Cl)nc2n1`, the melting point was 276 °C. Consider `Fc1ccc(F)c(COc2cccnc2NC(=S)Nc2ccc(Cl)cc2)c1F`, for which the melting point fell in the range of 174 to 176 °C. `CCN1CC(C(=O)Nc2cnccn2)CC2c3cccc4[nH]cc(c34)CC21` (configuration not stated): the melting point is 151 to 155 °C.

In turn, `CS(=O)(=O)c1ccc(-c2[nH]c3ccc(Cl)cc3c2-c2cccc(Cl)c2)cc1` gave a melting point of 254 to 257 °C.

In the case of `Cc1cc([N+](=O)[O-])c(NC(C)C(=O)N(C)OS(C)(=O)=O)c([N+](=O)[O-])c1` (configuration not stated), the melting point turned out to be 145 °C. In the case of `C#CC[C@H]1CC[C@H](C(=O)O)CC1`, the melting point lay within 84 to 86 °C.

`O=C(O)c1cc2c(s1)S(=O)(=O)CC2`: the melting point lay in the range of 227 to 230 °C. As for `CN(C)CC(C)(CSC(=S)N(C)C)[N+](=O)[O-]` (configuration not stated), the figure is 75.5 to 78 °C.

The compound `Cc1oc(-c2ccccc2)nc1COc1ccc(Cn2cc(/C=C/C(=O)O)cn2)cc1` gave a melting point of 186 to 187 °C. Consider `Nc1nc(NC2CC2)c2ncn(/C=C3/CC3(CO)CO)c2n1`, for which the melting point lay within 164 to 165 °C. `CCc1oc2ccccc2c1C(=O)NCc1ccc2c(Br)c(OCc3nnn[nH]3)ccc2c1` showed a melting point of 235 to 238 °C. `CCCc1ccc2c(c1)C=Cc1cc(C)ccc1C2c1cn(-c2ccnc(N(C)CC(=O)O)n2)c(=O)[nH]c1=S` (configuration not stated) showed a melting point of 145 to 150 °C.

As to `CC(C(=O)Cl)c1ccc2c(c1)CCc1ccccc1C2=O` (configuration not stated), the melting point turned out to be 142 °C. `Cc1nc2cc(NC(=O)c3cc4cc(C(F)(F)F)ccc4n3Cc3cccc(F)c3)ccn2c1C` showed a melting point of 280 to 281 °C.

Turning to `CCCCCN(C(=O)Nc1ccc(C(=O)O)cc1)c1ccc2c(c1)C(C)(C)CCC2(C)C`, the melting point was 184 to 186 °C. Compound `CC1(C)CC(=O)c2c(C3CCC3)sc(-c3nccs3)c2C1` registered a melting point of 126 to 128 °C.

As to `CC(=O)Nc1ccccc1OCCO`, the melting point was in the range of 89 to 91 °C. With `Cc1oc(-c2ccccc2)nc1CCOc1ccc(CCCCCC2OC(=O)NC2=O)cc1` (configuration not stated), the melting point was in the range of 157 to 158 °C. In the case of `O=c1[nH]c2[nH]c3ccccc3c2c2ccccc12` it was greater than 310 °C; in that of `COC(=O)c1ccc(C(=O)c2cc3c(cc2C)OC2(C)C4CCC(C)(C4)C32C)cc1` (configuration not stated), 140 to 142 °C; in that of `COc1ccc(-n2c(CF)nc3ccc(N)cc3c2=O)c(C)c1`, 200 to 202 °C. Take `CS(=O)(=O)c1ccc(-c2cc(C(=O)c3ccc(Cl)cc3Cl)sc2N2CCOCC2)cc1`: the melting point amounted to 170 °C. Compound `O=c1[nH]c2cc(Cl)cc(Cl)c2c(=O)n1Cc1ccncc1` displayed a melting point of 354 to 364 °C. `Cc1cc(C)c2cc(-c3ccccc3)c(=O)[nH]c2n1` showed a melting point of 258 to 260 °C. For `CC1(C)C(=O)Nc2ccc(-c3ccc(C#N)s3)cc21`, the melting point lay in the range of 255 to 256 °C.

The compound `O=C(/C=C/c1ccc(Br)cc1)Nc1ccccc1C(=O)O` returned a melting point of 215 to 216 °C. `O=C1N(Cc2ccc(Cl)o2)c2ccccc2C12COc1cc3c(cc12)OCO3` (configuration not stated) had a melting point of 148 to 150 °C. Turning to `CCCc1cccc(=O)[nH]1`, the melting point fell in the range of 89 to 90 °C. As for `CCCCc1nc(Cc2ccc(-c3ccccc3C(=O)OC)cc2)c2ccccc2n1`, the figure is 76 °C; as for `CCC(C(=O)OCC[Si](C)(C)C)c1ccccc1CCC(=O)c1cccc(C=Cc2ccc3ccc(Cl)cc3n2)c1` (configuration not stated), 109 to 111 °C; as for `CC(C)N1CCN(c2ccc(C(=O)NC3(C(=O)NCC#N)CCCCC3)cc2)CC1`, 218 to 220 °C. In the case of `Cc1oc(-c2ccccc2)nc1COc1ccc(COc2ncccc2CC(=O)O)cn1` it was 147 to 148 °C; in that of `O=C1C(=O)c2ccccc2C2=C1SCC1(CCN(CC(O)COc3ccc4cc(Br)ccc4c3)CC1)O2` (configuration not stated), 183 to 184 °C. With `COc1cc(Cl)c2c(c1)C=C(C(=O)O)C(C(F)(F)F)O2` (configuration not stated), the melting point lay in the range of 204 to 207 °C.

For `CCCCCNC(=O)N(C)c1cccc(-c2ccc(C=C(OCC)C(=O)O)cc2OCCCC)c1`, the melting point came to 59 °C. As for `CCOC(CCOc1cc(Cc2cnc(N)nc2N)cc(OC)c1OC)OCC`, the figure is 105 to 106 °C; as for `CCn1ncc2c(Cl)c(C=O)cnc21`, 89 to 90 °C; as for `CC(C)(C)C(=O)c1ccc(C2(C)OCCO2)cc1`, 75 to 82 °C. For the compound `CC(=O)OCC(OC(C)=O)C(OC(C)=O)C(OC(C)=O)C(C=O)OC(C)=O` (configuration not stated), the melting point lay within 112 to 114 °C.
